Laboratory results published in paper PMC2673211, “Nitric oxide activates ATP-sensitive potassium channels in mammalian sensory neurons: action by direct S-nitrosylation” (Molecular Pain, 2009).
One block for each compound: values may come before it.

Tests used:
[1] = biological target: T1, KATP channels in large DRG neurons (Rattus norvegicus, UniProt P70673+Q09429); experiment: Excised inside-out (cell-free) patch-clamp recording of KATP channel activity; type: biochemical
T1 construct: native KATP channels in large DRG neurons; endogenous in cells; host or cells: acutely dissociated large-diameter neurons from rat L4/L5 dorsal root ganglia (sham-operated or spinal nerve ligated animals)
T1 sequence (Q09429 whole entry): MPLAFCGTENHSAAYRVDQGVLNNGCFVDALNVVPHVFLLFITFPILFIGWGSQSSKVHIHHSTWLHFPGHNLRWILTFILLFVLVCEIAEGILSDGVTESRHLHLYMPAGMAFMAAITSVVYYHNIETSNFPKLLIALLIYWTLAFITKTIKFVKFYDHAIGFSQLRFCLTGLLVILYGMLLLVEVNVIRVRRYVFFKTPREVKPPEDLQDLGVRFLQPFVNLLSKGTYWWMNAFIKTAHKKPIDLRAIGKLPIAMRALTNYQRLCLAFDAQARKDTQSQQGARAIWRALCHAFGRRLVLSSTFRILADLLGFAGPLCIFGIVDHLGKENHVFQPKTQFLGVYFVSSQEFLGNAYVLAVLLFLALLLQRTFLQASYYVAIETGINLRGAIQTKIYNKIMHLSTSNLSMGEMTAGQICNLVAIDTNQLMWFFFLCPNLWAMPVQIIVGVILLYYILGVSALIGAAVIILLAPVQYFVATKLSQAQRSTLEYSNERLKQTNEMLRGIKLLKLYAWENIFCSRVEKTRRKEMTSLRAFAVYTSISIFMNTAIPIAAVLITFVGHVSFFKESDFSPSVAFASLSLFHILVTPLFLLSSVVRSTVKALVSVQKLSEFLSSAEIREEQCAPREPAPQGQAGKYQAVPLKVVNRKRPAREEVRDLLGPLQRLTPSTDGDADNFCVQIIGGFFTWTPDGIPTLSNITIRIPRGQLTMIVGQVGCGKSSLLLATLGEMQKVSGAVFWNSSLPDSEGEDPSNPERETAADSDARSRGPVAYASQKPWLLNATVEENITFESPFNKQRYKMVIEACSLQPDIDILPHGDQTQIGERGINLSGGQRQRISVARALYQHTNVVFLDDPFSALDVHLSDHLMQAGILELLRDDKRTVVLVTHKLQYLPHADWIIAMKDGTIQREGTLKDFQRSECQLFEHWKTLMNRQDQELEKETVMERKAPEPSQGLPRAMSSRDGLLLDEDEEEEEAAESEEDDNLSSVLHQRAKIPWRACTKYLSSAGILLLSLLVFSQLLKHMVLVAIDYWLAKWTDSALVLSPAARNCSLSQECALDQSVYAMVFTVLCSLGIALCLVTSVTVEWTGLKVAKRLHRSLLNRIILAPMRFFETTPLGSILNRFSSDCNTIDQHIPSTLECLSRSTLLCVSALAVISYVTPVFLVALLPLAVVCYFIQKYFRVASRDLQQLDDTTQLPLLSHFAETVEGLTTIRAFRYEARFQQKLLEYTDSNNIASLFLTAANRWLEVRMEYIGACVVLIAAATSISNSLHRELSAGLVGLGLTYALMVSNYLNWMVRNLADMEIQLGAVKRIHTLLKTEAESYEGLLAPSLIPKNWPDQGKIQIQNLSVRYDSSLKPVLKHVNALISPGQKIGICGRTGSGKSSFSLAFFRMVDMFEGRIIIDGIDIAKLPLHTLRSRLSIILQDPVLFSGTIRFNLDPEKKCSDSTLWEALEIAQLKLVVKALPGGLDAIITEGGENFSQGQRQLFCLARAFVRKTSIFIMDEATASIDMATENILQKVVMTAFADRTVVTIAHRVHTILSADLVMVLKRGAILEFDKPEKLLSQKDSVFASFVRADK
T1 sequence (P70673 whole entry): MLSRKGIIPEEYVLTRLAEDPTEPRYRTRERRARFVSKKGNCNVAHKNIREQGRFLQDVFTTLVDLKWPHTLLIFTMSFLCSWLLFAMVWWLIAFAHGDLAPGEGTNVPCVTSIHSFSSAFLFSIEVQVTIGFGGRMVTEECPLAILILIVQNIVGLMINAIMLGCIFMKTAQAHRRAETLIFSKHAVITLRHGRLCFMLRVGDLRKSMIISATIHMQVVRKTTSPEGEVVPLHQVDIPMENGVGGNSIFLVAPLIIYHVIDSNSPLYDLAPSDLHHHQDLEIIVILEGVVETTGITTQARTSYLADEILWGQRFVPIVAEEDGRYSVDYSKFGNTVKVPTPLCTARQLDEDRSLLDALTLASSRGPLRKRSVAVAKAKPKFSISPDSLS
Text: (§1) We harvested control (L4 and L5) or axotomized (L5) ganglia, from control (SS) or hyperalgesic rats (SNL) respectively, between the 17th and 28th postoperative days. We sacrificed animals by decapitation under deep isoflurane anesthesia, excised ganglia through a lumbar incision, and at the same time confirmed accuracy of initial surgery.
For patch-clamp recordings, we placed excised DRG into separate 35 mm Petri dishes containing cold, oxygenated, Hanks Balanced Salt Solution (Gibko, Invitrogen, Grand Islan, NY), and minced them with iris scissors. We dissociated ganglia enzymatically in a solution containing 0.25 ml 0.05% w:v liberase blendzyme 2 (Roche Diagnostics Corp., Indianapolis, IN) and 0.25 ml DMEM/F12 with glutaMAX (Dulbecco's modified Eagle's medium F12; Gibco, Invitrogen Corp., Carlsbad, CA) in an incubator at 37°C for 30 min. We then removed the supernatant after centrifugation and re-incubated cells at 37°C for another 30 min in 0.2 ml 0.0625% trypsin (Sigma, St. Louis, MO) and 0.0125% deoxyribonuclease 1 (150,000 U, Sigma, St. Louis, MO) in 0.25 ml DMEM. We then isolated cells by centrifugation (600 rpm for 5 min) after adding 0.25 ml trypsin inhibitor 0.1% w:v (Sigma St. Louis, MO), and re-suspended them in a culture medium consisting of 0.5 mM glutamine, 0.02 mg/ml gentamicin (Gibco, Invitrogen Corp., Carlsbad, CA), 100 ng/ml nerve growth factor 7S (Alomone Labs, Jerusalem, Israel), 2% (vol/vol) B-27 supplement (Gibco, Invitrogen Corp., Carlsbad, CA), and 98% (vol/vol) neural basal medium A (Gibco, Invitrogen Corp., Carlsbad, CA). Finally, we plated cells onto poly-l-lysine-coated 12-mm glass coverslips (Deutsche Spiegelglas; Carolina Biologic Supply, Burlington, NC), kept them in a humidified incubator at 37°C with 95% air and 5% CO2, and studied them within 3–8 h of dissociation.
We visualized plated neurons using an inverted Nikon Diaphot 300 microscope with Hoffman modulation optic system. We selected only large diameter neuronal somata (≥ 40 μm in diameter) because we have previously shown that only these develop KATP current alterations, as well as changes indicative of increased excitability after painful-like nerve injury by SNL [74]. Large neuronal somata, roughly correspond to large, myelinated Aβ fibers.
(§2) We recorded current passing through single channels in inside-out or cell-attached patch configurations. In cell-attached patches, both bath and pipette (extracellular) solutions were composed of the following: 140 mM KCl, 10 mM HEPES, 5.5 mM dextrose, and 1 mM EGTA. In inside-out patches, the bath (intracellular) solution contained 140 mM KCl, 1.2 mM MgCl2, 10 mM HEPES, 1.5 mM EGTA and 5.5 mM dextrose. The pipette (extracellular) solution was of the same composition as that used in cell-attached recordings. The pH of all solutions was adjusted to 7.4 with KOH. Osmolality was adjusted approximately to 300 mOsm/l by adding sucrose if necessary. We pulled patch micropipettes from borosilicate glass capillaries using a Flaming/Brown micropipette puller, model P-97 (Sutter, San Rafael, CA) and flame polished them with a microforge polisher (Narishige, Tokyo, Japan) prior to use. Their resistance ranged between 3 and 6 MΩ when filled with the internal solution, and placed into the recording solutions.
(§3) We recorded single channel currents at room temperature (20–25°C) using an Axon CNS Multiclamp 700B amplifier, digitized them using an analog-to-digital converter (Axon CNS DigiData 1440A; Axon Instruments, Foster, CA), and stored them into a PC. Sampling frequency of single-channel data was 5 KHz with a low-pass filter (1 KHz). We used pClamp version 10.2 software (Axon Instruments) for data acquisition and analysis. We applied a conventional 50% current amplitude threshold level criterion to determine open events. Channel open probability (Po) was determined from the ratios of the area under the peaks in the amplitude histograms fitted by a Gaussian distribution. […]

[2] = biological target: T2, wild-type SUR1/Kir6.2 channels (Rattus norvegicus, UniProt P70673+Q09429); experiment: Inside-out patch recording of recombinant wild-type channels expressed in COS7 cells; type: biochemical
T2 construct: A full-length Kir cDNA and a full-length SUR cDNA were subcloned into the mammalian expression vector; expressed in transfected cells; host or cells: COS7 cells (KATP channel-deficient), pcDNA3.1(-) vectors, GFP cDNA co-transfected as a separate reporter
T2 sequence (Q09429 whole entry): as the sequence (Q09429 whole entry) above
T2 sequence (P70673 whole entry): as the sequence (P70673 whole entry) above
Method: (§4) KATP channel-deficient COS7 cells were plated at a density of 3 × 10^5/dish (35 mm in diameter) and cultured in Dulbecco's modified Eagle's medium supplemented with 10% fetal calf serum. Rat Kir6.2 (GenBank X97041) and rat SUR1 (GenBank X97279) cDNAs were used for expression study. A truncated form of Kir6.2 lacking the last 36 amino acids at the C-terminus was obtained by polymerase chain reaction amplification. Polymerase chain reaction products were cloned into the pCR3.1 vector by using the TA cloning system (Invitrogen Corp., Carlsbad, CA, USA) and then cloned into the pcDNA3.1 (-) vector (Invitrogen Corp.) for mammalian expression. Point mutation of cysteine at position 717 (C717), C806, C1378, C1446, and C1491 within SUR1 to serine (C717S, C806S, C1378S, C1446S, and C1491S) was performed by using the Site-Directed Mutagenesis system (Invitrogen Corp.). All cDNA products were sequenced by using the BigDye terminator cycle sequencing kit and an ABI PRISM 377 DNA sequencer (Applied Biosystems, Foster City, CA) to confirm the sequence. A full-length Kir cDNA and a full-length SUR cDNA were subcloned into the mammalian expression vector pcDNA3.1 (-). For electrophysiological recordings, either wild-type or mutated pcDNA3.1 (-) Kir6.2 alone (1 μg), or pcDNA3.1 (-) Kir6.2 (1 μg) plus pcDNA3.1 (-) SUR1 (3 μg) were transfected into COS7 cells with green fluorescent protein cDNA as a reporter gene by using lipofectamine and Opti-MEN 1 reagents (Life Technologies Inc., Rockville, MD) according to the manufacturer's instructions. After transfection, cells were cultured at 37°C with 95% air and 5% CO2 for 48–72 h before being subjected to electrophysiological recordings.
as §2
as §3, with “We applied a conventional 50% current amplitude threshold level criterion to determine open events.” left out, “distribution. We calculated channel activity as NPo (where N is the number of observed channels in the patch) from data samples of either 30 s (in inside-out recordings), or 60 s (in cell-attached recordings), in the steady state.” for “distribution.”

[3] = biological target: T3, SUR1-C717S/Kir6.2 channels (Rattus norvegicus, UniProt P70673+Q09429, C717S); experiment: Inside-out patch recording of mutated channels expressed in COS7 cells; type: biochemical; conditions: DTT 5 mM; n = 7
T3 construct: A full-length Kir cDNA and a full-length SUR cDNA were subcloned into the mammalian expression vector; expressed in transfected cells; host or cells: COS7 cells, pcDNA3.1(-) vectors, GFP cDNA co-transfected as a separate reporter
T3 sequence (Q09429 whole entry C717S): as the sequence (Q09429 whole entry) above, with C717S counted along it
T3 sequence (P70673 whole entry): as the sequence (P70673 whole entry) above
Method: as §4, §2
as §3, with “We applied a conventional 50% current amplitude threshold level criterion to determine open events.” left out, “distribution. We calculated channel activity as NPo (where N is the number of observed channels in the patch) from data samples of either 30 s (in inside-out recordings), or 60 s (in cell-attached recordings), in the steady state.” for “distribution.”

[4] = biological target: T1, KATP channels in large DRG neurons; experiment: Cell-attached single-channel patch-clamp recording of KATP channel activity (NPo); type: cell-based; conditions: for NPo, DNP-induced channel opening: DNP 100 μM bath application, -60 mV; for NPo 10 min after SNAP following pretreatment with KT 5823: KT 5823 1 μM for 20 min; for NPo 10 min after SNAP following pretreatment with KT 5823 / NPo 10 min after SNAP following pretreatment with ODQ: then SNAP 100 μM; for baseline NPo after pretreatment with L-NAME: L-NAME 100 μM for 20 minutes; for NPo 10 min after SNAP following pretreatment with ODQ: ODQ 10 μM for 20 min
Text: as §1
For patch-clamp recordings, we placed excised DRG into separate 35 mm Petri dishes containing cold, oxygenated, Hanks Balanced Salt Solution (Gibko, Invitrogen, Grand Islan, NY), and minced them with iris scissors. We dissociated ganglia enzymatically in a solution containing 0.25 ml 0.05% w:v liberase blendzyme 2 (Roche Diagnostics Corp., Indianapolis, IN) and 0.25 ml DMEM/F12 with glutaMAX (Dulbecco's modified Eagle's medium F12; Gibco, Invitrogen Corp., Carlsbad, CA) in an incubator at 37°C for 30 min. […] Finally, we plated cells onto poly-l-lysine-coated 12-mm glass coverslips (Deutsche Spiegelglas; Carolina Biologic Supply, Burlington, NC), kept them in a humidified incubator at 37°C with 95% air and 5% CO2, and studied them within 3–8 h of dissociation.
We visualized plated neurons using an inverted Nikon Diaphot 300 microscope with Hoffman modulation optic system. […] Large neuronal somata, roughly correspond to large, myelinated Aβ fibers.
as §2
Sampling frequency of single-channel data was 5 KHz with a low-pass filter (1 KHz). […] We applied a conventional 50% current amplitude threshold level criterion to determine open events. Channel open probability (Po) was determined from the ratios of the area under the peaks in the amplitude histograms fitted by a Gaussian distribution. We calculated channel activity as NPo (where N is the number of observed channels in the patch) from data samples of either 30 s (in inside-out recordings), or 60 s (in cell-attached recordings), in the steady state. In inside-out recordings, NPo of the KATP channels was normalized to the baseline NPo value obtained before test drugs at bathing solution without ATP (indicating relative channel activity).

[5] = agent alone, vs. baseline/control

Compound: O[C@@H](CS)[C@@H](O)CS (racemic) [DTT, di-thiothreitol]
effect on SNAP-induced KATP channel activation ([1]; SS neurons, DTT 5 mM after SNAP 100 μM, 1 mM [ATP]i, n = 7): completely reversed | direct effect on KATP channels in inside-out patches [1, 5]: no direct effect | effect on SNAP-activated currents ([2]; DTT 5 mM after SNAP 1 mM): almost completely suppressed | effect on SNAP-induced channel activation [3]: reversed

Compound: Nc1nc2c(nc(Br)n2[C@@H]2O[C@@H]3COP(=O)([O-])O[C@H]3[C@H]2O)c(=O)[nH]1.[Na+] [8-Br-cGMP, 8-bromo-cGMP sodium salt]
time to steady-state activation after exposure ([4]; 8-Br-cGMP 100 μM): 2 to 3 min | effect when applied after SNAP-induced steady-state activation ([4]; 8-Br-cGMP at least 5 min after SNAP 100 μM, SS and SNL neurons, n = 5 each): additional further channel opening | NPo 5 min after application of 8-Br-cGMP ([4]; SNL neurons, 8-Br-cGMP 100 μM, n = 7): 0.17 ± 0.06 | NPo 5 min after application of 8-Br-cGMP ([4]; SS neurons, 8-Br-cGMP 100 μM, n = 8): 0.22 ± 0.08

Compound: O=[N+]([O-])c1ccc(O)c([N+](=O)[O-])c1 [DNP, 2,4-Dinitrophenol]
NPo, DNP-induced channel opening ([4]; SNL neurons, n = 8): 0.208 ± 0.16 | NPo, DNP-induced channel opening ([4]; SS neurons, n = 8): 0.442 ± 0.26 | direct effect on KATP channels in inside-out patches ([1]; DNP 100 μM, SS and SNL, vs. baseline): no direct effect

Compound: COC(=O)[C@@]1(OC)C[C@H]2O[C@]1(C)n1c3ccccc3c3c4c(c5c6ccccc6n2c5c31)C(=O)N(C)C4 [KT 5823]
effect of pretreatment on 8-Br-cGMP-induced KATP channel activation ([4]; KT 5823, SS and SNL neurons): significantly reduces | NPo 10 min after SNAP following pretreatment with KT 5823 ([4]; SNL neurons, n = 6): 0.26 ± 0.19 | NPo 10 min after SNAP following pretreatment with KT 5823 ([4]; SS neurons, n = 5): 0.14 ± 0.17 | direct effect on KATP channels in inside-out patches [1, 5]: neither ODQ nor KT 5823 had any direct effect

Compound: CCN1C(=O)C=CC1=O [NEM, N-ethylmaleimide]
effect on basal channel activity ([1]; NEM 5 mM, 1 mM [ATP]i, n = 6): significantly decreased | effect on the activating effect of SNAP on KATP channels ([1]; SS neurons, NEM 5 mM before SNAP 100 μM, 1 mM [ATP]i, n = 6): completely eliminated

Compound: nitric oxide [NO]
potency of direct activation of cloned channels relative to native channels (less potent) ([2]; cloned SUR1/Kir6.2 in COS7 cells vs. native channels in DRG neurons): approximately 3 fold

Now from value to compound, other results behind:

baseline NPo after pretreatment with L-NAME ([4]; SNL neurons, n = 7): 0.06 ± 0.04 | baseline NPo after pretreatment with L-NAME ([4]; SS neurons, n = 7): 0.114 ± 0.06 | direct effect on KATP channels in inside-out patches [1, 5]: no direct effect
Compound: COC(=O)[C@@H](N)CCCNC(N)=N[N+](=O)[O-] [L-NAME, NG-nitro-L-arginine methyl ester]

NPo 10 min after SNAP following pretreatment with ODQ ([4]; SNL neurons, n = 6): 0.27 ± 0.16 | NPo 10 min after SNAP following pretreatment with ODQ ([4]; SS neurons, n = 6): 0.25 ± 0.09
Compound: O=c1onc2cnc3ccccc3n12 [ODQ, 1H-[1,2, 4] oxadiazolo [4,3-a] quinoxalin-1-one]
direct effect on KATP channels in inside-out patches [1, 5]: neither ODQ nor KT 5823 had any direct effect

effect on KATP channel activity ([4]; zaprinast, control and SNL neurons, data not shown): no effect
Compound: CCCOc1ccccc1-c1nc2nn[nH]c2c(=O)[nH]1 [zaprinast]
